Several values for one entry are separate records, joined by “and”; a condition that tells them apart may be missing. Identical values can stand only once. Like-named read-outs stand apart in the source and are kept apart here.
Legend:
Botrytis cinerea = assay type: cell-based; parameters: key to Plate antimicrobial activity test Botrytis cinerea, level: a case where hyphae extended to the entire well and no antimicrobial activity was found is defined as “level 0,”; a case where hyphae extended to less than a half of the well and thus the peptide inhibited the growth of the hyphae is defined as “level 1,”; a case where ungerminated spores were present and the peptide partially inhibited the germination is defined as “level 2,”; a case where all spores were ungerminated and the peptide completely inhibited the germination is defined as “level 3.”; conditions: 25° C. for 1 day or 2 days, microscopic observation
[1] = tested on: Colletotrichum destructivum; assay type: cell-based; parameters: key to Plate antimicrobial activity test Colletotrichum destructivum, level: a case where hyphae extended to the entire well and no antimicrobial activity was found is defined as “level 0,”; a case where hyphae extended to less than a half of the well and thus the peptide inhibited the growth of the hyphae is defined as “level 1,”; a case where ungerminated spores were present and the peptide partially inhibited the germination is defined as “level 2,”; a case where all spores were ungerminated and the peptide completely inhibited the germination is defined as “level 3.”; conditions: 25° C. for 1 day or 2 days, microscopic observation
[2] = tested on: Colletotrichum orbiculare; assay type: cell-based; parameters: key to Plate antimicrobial activity test Colletotrichum orbiculare, level: a case where hyphae extended to the entire well and no antimicrobial activity was found is defined as “level 0,”; a case where hyphae extended to less than a half of the well and thus the peptide inhibited the growth of the hyphae is defined as “level 1,”; a case where ungerminated spores were present and the peptide partially inhibited the germination is defined as “level 2,”; a case where all spores were ungerminated and the peptide completely inhibited the germination is defined as “level 3.”; conditions: 25° C. for 1 day or 2 days, microscopic observation
Fusarium oxysporum = assay type: cell-based; parameters: key to Plate antimicrobial activity test Fusarium oxysporum, level: a case where hyphae extended to the entire well and no antimicrobial activity was found is defined as “level 0,”; a case where hyphae extended to less than a half of the well and thus the peptide inhibited the growth of the hyphae is defined as “level 1,”; a case where ungerminated spores were present and the peptide partially inhibited the germination is defined as “level 2,”; a case where all spores were ungerminated and the peptide completely inhibited the germination is defined as “level 3.”
Pyricularia oryzae = assay type: cell-based; parameters: key to Plate antimicrobial activity test Pyricularia oryzae, level: a case where hyphae extended to the entire well and no antimicrobial activity was found is defined as “level 0,”; a case where hyphae extended to less than a half of the well and thus the peptide inhibited the growth of the hyphae is defined as “level 1,”; a case where ungerminated spores were present and the peptide partially inhibited the germination is defined as “level 2,”; a case where all spores were ungerminated and the peptide completely inhibited the germination is defined as “level 3.”; conditions: 25° C. for 1 day or 2 days, microscopic observation
[3] = tested on: Colletotrichum destructivum; assay: Colletotrichum destructivum leaf inoculation test (Chinese cabbage leaf); assay type: in vivo; conditions: peptide 100 μM; Chinese cabbage leaf, 25° C. for 4 days, lesions by visual inspection; symbols ◯/Δ/X not defined
Method: In the present example, a suspension comprising Colletotrichum destructivum and a peptide to be tested was dropped on a plant leaf, and lesions were then observed by visual inspection to evaluate the antimicrobial activity of the tested peptide. First, the pores of Colletotrichum destructivum were suspended in water to result in a spore concentration of 5×10^5 spores/ml, so as to prepare a water suspension of spores. Subsequently, a peptide to be tested (TsORF6-1) was added to the water suspension of spores, so that the final concentration of the peptide to be tested became 0 μM, 1 μM, 10 μM or 100 μM. Thereafter, 10 μl each of the water suspension of spores containing the peptide to be tested was dropped on the front side and the back side of the leaf of Chinese cabbage (variety name: “Kigokoro 85”). In this condition, incubation was carried out at 25° C. for 4 days. Thereafter, the front and back sides of the leaf were observed by visual inspection.

[4] = tested on: plant pathogenic filamentous fungi; assay type: cell-based; conditions: Table 3

Substance: KVMIVVKT (listed as Solanum lycopersicum) [TsORF6-1-8aa-2, partial peptide of TsORF6-1, 8 amino acid residues]
- Plate antimicrobial activity test Botrytis cinerea, level (Botrytis cinerea; peptide 1 μM): 0
- Plate antimicrobial activity test Botrytis cinerea, level (Botrytis cinerea; peptide 10 μM): 0
- Plate antimicrobial activity test Botrytis cinerea, level (Botrytis cinerea; peptide 100 μM): 3
- Plate antimicrobial activity test Colletotrichum destructivum, level ([1]; peptide 1 μM): 0
- Plate antimicrobial activity test Colletotrichum destructivum, level ([1]; peptide 10 μM): 0
- Plate antimicrobial activity test Colletotrichum destructivum, level ([1]; peptide 100 μM): 2
- Plate antimicrobial activity test Colletotrichum orbiculare, level ([2]; peptide 1 μM): 0
- Plate antimicrobial activity test Colletotrichum orbiculare, level ([2]; peptide 10 μM): 0
- Plate antimicrobial activity test Colletotrichum orbiculare, level ([2]; peptide 100 μM): 2
- Plate antimicrobial activity test Fusarium oxysporum, level (Fusarium oxysporum): 3 and 0
- Plate antimicrobial activity test Pyricularia oryzae, level (Pyricularia oryzae; peptide 1 μM): 0
- Plate antimicrobial activity test Pyricularia oryzae, level (Pyricularia oryzae; peptide 10 μM): 0
- Plate antimicrobial activity test Pyricularia oryzae, level (Pyricularia oryzae; peptide 100 μM): 2
- Leaf inoculation test Chinese cabbage/Colletotrichum destructivum [3]: ◯
- germination inhibitory activity against plant pathogenic filamentous fungi, result in words [4]: extremely excellent germination inhibitory activity

Substance: MKVMI (listed as Solanum lycopersicum) [TsORF6-1-5aa-1, partial peptide of TsORF6-1, 5 amino acid residues]
- Plate antimicrobial activity test Botrytis cinerea, level (Botrytis cinerea; peptide 1 μM): 0
- Plate antimicrobial activity test Botrytis cinerea, level (Botrytis cinerea; peptide 10 μM): 0
- Plate antimicrobial activity test Botrytis cinerea, level (Botrytis cinerea; peptide 100 μM): 1
- Plate antimicrobial activity test Colletotrichum destructivum, level ([1]; peptide 1 μM): 0
- Plate antimicrobial activity test Colletotrichum destructivum, level ([1]; peptide 10 μM): 0
- Plate antimicrobial activity test Colletotrichum destructivum, level ([1]; peptide 100 μM): 1
- Plate antimicrobial activity test Colletotrichum orbiculare, level ([2]; peptide 1 μM): 0
- Plate antimicrobial activity test Colletotrichum orbiculare, level ([2]; peptide 10 μM): 0
- Plate antimicrobial activity test Colletotrichum orbiculare, level ([2]; peptide 100 μM): 1
- Plate antimicrobial activity test Fusarium oxysporum, level (Fusarium oxysporum): 0
- Plate antimicrobial activity test Pyricularia oryzae, level (Pyricularia oryzae; peptide 1 μM): 0
- Plate antimicrobial activity test Pyricularia oryzae, level (Pyricularia oryzae; peptide 10 μM): 0
- Plate antimicrobial activity test Pyricularia oryzae, level (Pyricularia oryzae; peptide 100 μM): 1
- Leaf inoculation test Chinese cabbage/Colletotrichum destructivum [3]: ◯
- germination inhibitory activity against plant pathogenic filamentous fungi, result in words [4]: extremely excellent germination inhibitory activity

Substance: KVKNK (listed as Solanum lycopersicum) [TsORF6-1-5aa-10, partial peptide of TsORF6-1, 5 amino acid residues]
- Plate antimicrobial activity test Botrytis cinerea, level (Botrytis cinerea; peptide 1 μM): 0
- Plate antimicrobial activity test Botrytis cinerea, level (Botrytis cinerea; peptide 10 μM): 0
- Plate antimicrobial activity test Botrytis cinerea, level (Botrytis cinerea; peptide 100 μM): 0
- Plate antimicrobial activity test Colletotrichum destructivum, level ([1]; peptide 1 μM): 0
- Plate antimicrobial activity test Colletotrichum destructivum, level ([1]; peptide 10 μM): 0
- Plate antimicrobial activity test Colletotrichum destructivum, level ([1]; peptide 100 μM): 0
- Plate antimicrobial activity test Colletotrichum orbiculare, level ([2]; peptide 1 μM): 0
- Plate antimicrobial activity test Colletotrichum orbiculare, level ([2]; peptide 10 μM): 0
- Plate antimicrobial activity test Colletotrichum orbiculare, level ([2]; peptide 100 μM): 0
- Plate antimicrobial activity test Fusarium oxysporum, level (Fusarium oxysporum): 0 and 1
- Plate antimicrobial activity test Pyricularia oryzae, level (Pyricularia oryzae; peptide 1 μM): 0
- Plate antimicrobial activity test Pyricularia oryzae, level (Pyricularia oryzae; peptide 10 μM): 0
- Plate antimicrobial activity test Pyricularia oryzae, level (Pyricularia oryzae; peptide 100 μM): 0
- Leaf inoculation test Chinese cabbage/Colletotrichum destructivum [3]: Δ

Substance: KKVAK (listed as Solanum lycopersicum) [TsORF6-1-5aa-14, partial peptide of TsORF6-1, 5 amino acid residues]
- Plate antimicrobial activity test Botrytis cinerea, level (Botrytis cinerea; peptide 1 μM): 0
- Plate antimicrobial activity test Botrytis cinerea, level (Botrytis cinerea; peptide 10 μM): 0
- Plate antimicrobial activity test Botrytis cinerea, level (Botrytis cinerea; peptide 100 μM): 0
- Plate antimicrobial activity test Colletotrichum destructivum, level ([1]; peptide 1 μM): 0
- Plate antimicrobial activity test Colletotrichum destructivum, level ([1]; peptide 10 μM): 0
- Plate antimicrobial activity test Colletotrichum destructivum, level ([1]; peptide 100 μM): 0
- Plate antimicrobial activity test Colletotrichum orbiculare, level ([2]; peptide 1 μM): 0
- Plate antimicrobial activity test Colletotrichum orbiculare, level ([2]; peptide 10 μM): 0
- Plate antimicrobial activity test Colletotrichum orbiculare, level ([2]; peptide 100 μM): 0
- Plate antimicrobial activity test Fusarium oxysporum, level (Fusarium oxysporum): 0
- Plate antimicrobial activity test Pyricularia oryzae, level (Pyricularia oryzae; peptide 1 μM): 0
- Plate antimicrobial activity test Pyricularia oryzae, level (Pyricularia oryzae; peptide 10 μM): 0
- Plate antimicrobial activity test Pyricularia oryzae, level (Pyricularia oryzae; peptide 100 μM): 0
- Leaf inoculation test Chinese cabbage/Colletotrichum destructivum [3]: Δ

Substance: KVAKM (listed as Solanum lycopersicum) [TsORF6-1-5aa-15, partial peptide of TsORF6-1, 5 amino acid residues]
- Plate antimicrobial activity test Botrytis cinerea, level (Botrytis cinerea; peptide 1 μM): 0
- Plate antimicrobial activity test Botrytis cinerea, level (Botrytis cinerea; peptide 10 μM): 0
- Plate antimicrobial activity test Botrytis cinerea, level (Botrytis cinerea; peptide 100 μM): 0
- Plate antimicrobial activity test Colletotrichum destructivum, level ([1]; peptide 1 μM): 0
- Plate antimicrobial activity test Colletotrichum destructivum, level ([1]; peptide 10 μM): 0
- Plate antimicrobial activity test Colletotrichum destructivum, level ([1]; peptide 100 μM): 0
- Plate antimicrobial activity test Colletotrichum orbiculare, level ([2]; peptide 1 μM): 0
- Plate antimicrobial activity test Colletotrichum orbiculare, level ([2]; peptide 10 μM): 0
- Plate antimicrobial activity test Colletotrichum orbiculare, level ([2]; peptide 100 μM): 0
- Plate antimicrobial activity test Fusarium oxysporum, level (Fusarium oxysporum): 0
- Plate antimicrobial activity test Pyricularia oryzae, level (Pyricularia oryzae; peptide 1 μM): 0
- Plate antimicrobial activity test Pyricularia oryzae, level (Pyricularia oryzae; peptide 10 μM): 0
- Plate antimicrobial activity test Pyricularia oryzae, level (Pyricularia oryzae; peptide 100 μM): 0
- Leaf inoculation test Chinese cabbage/Colletotrichum destructivum [3]: Δ

Substance: KKVAKMMV (listed as Solanum lycopersicum) [TsORF6-1-8aa-14, partial peptide of TsORF6-1, 8 amino acid residues]
- Plate antimicrobial activity test Botrytis cinerea, level (Botrytis cinerea; peptide 1 μM): 0
- Plate antimicrobial activity test Botrytis cinerea, level (Botrytis cinerea; peptide 10 μM): 0
- Plate antimicrobial activity test Botrytis cinerea, level (Botrytis cinerea; peptide 100 μM): 0
- Plate antimicrobial activity test Colletotrichum destructivum, level ([1]; peptide 1 μM): 0
- Plate antimicrobial activity test Colletotrichum destructivum, level ([1]; peptide 10 μM): 0
- Plate antimicrobial activity test Colletotrichum destructivum, level ([1]; peptide 100 μM): 0
- Plate antimicrobial activity test Colletotrichum orbiculare, level ([2]; peptide 1 μM): 0
- Plate antimicrobial activity test Colletotrichum orbiculare, level ([2]; peptide 10 μM): 0
- Plate antimicrobial activity test Colletotrichum orbiculare, level ([2]; peptide 100 μM): 0
- Plate antimicrobial activity test Fusarium oxysporum, level (Fusarium oxysporum): 0
- Plate antimicrobial activity test Pyricularia oryzae, level (Pyricularia oryzae; peptide 1 μM): 0
- Plate antimicrobial activity test Pyricularia oryzae, level (Pyricularia oryzae; peptide 10 μM): 0
- Plate antimicrobial activity test Pyricularia oryzae, level (Pyricularia oryzae; peptide 100 μM): 0

Substance: VVKTK (listed as Solanum lycopersicum) [TsORF6-1-5aa-6, partial peptide of TsORF6-1, 5 amino acid residues]
- Plate antimicrobial activity test Botrytis cinerea, level (Botrytis cinerea; peptide 1 μM): 0
- Plate antimicrobial activity test Botrytis cinerea, level (Botrytis cinerea; peptide 10 μM): 0
- Plate antimicrobial activity test Botrytis cinerea, level (Botrytis cinerea; peptide 100 μM): 0
- Plate antimicrobial activity test Colletotrichum destructivum, level ([1]; peptide 1 μM): 0
- Plate antimicrobial activity test Colletotrichum destructivum, level ([1]; peptide 10 μM): 0
- Plate antimicrobial activity test Colletotrichum destructivum, level ([1]; peptide 100 μM): 0
- Plate antimicrobial activity test Colletotrichum orbiculare, level ([2]; peptide 1 μM): 0
- Plate antimicrobial activity test Colletotrichum orbiculare, level ([2]; peptide 10 μM): 0
- Plate antimicrobial activity test Colletotrichum orbiculare, level ([2]; peptide 100 μM): 0
- Plate antimicrobial activity test Fusarium oxysporum, level (Fusarium oxysporum): 0
- Plate antimicrobial activity test Pyricularia oryzae, level (Pyricularia oryzae; peptide 1 μM): 0
- Plate antimicrobial activity test Pyricularia oryzae, level (Pyricularia oryzae; peptide 10 μM): 0
- Plate antimicrobial activity test Pyricularia oryzae, level (Pyricularia oryzae; peptide 100 μM): 0

Substance: VKNKK (listed as Solanum lycopersicum) [TsORF6-1-5aa-11, partial peptide of TsORF6-1, 5 amino acid residues]
- Plate antimicrobial activity test Botrytis cinerea, level (Botrytis cinerea; peptide 1 μM): 0
- Plate antimicrobial activity test Botrytis cinerea, level (Botrytis cinerea; peptide 10 μM): 0
- Plate antimicrobial activity test Botrytis cinerea, level (Botrytis cinerea; peptide 100 μM): 0
- Plate antimicrobial activity test Colletotrichum destructivum, level ([1]; peptide 1 μM): 0
- Plate antimicrobial activity test Colletotrichum destructivum, level ([1]; peptide 10 μM): 0
- Plate antimicrobial activity test Colletotrichum destructivum, level ([1]; peptide 100 μM): 0
- Plate antimicrobial activity test Colletotrichum orbiculare, level ([2]; peptide 1 μM): 0
- Plate antimicrobial activity test Colletotrichum orbiculare, level ([2]; peptide 10 μM): 0
- Plate antimicrobial activity test Colletotrichum orbiculare, level ([2]; peptide 100 μM): 0
- Plate antimicrobial activity test Fusarium oxysporum, level (Fusarium oxysporum): 0
- Plate antimicrobial activity test Pyricularia oryzae, level (Pyricularia oryzae; peptide 1 μM): 0
- Plate antimicrobial activity test Pyricularia oryzae, level (Pyricularia oryzae; peptide 10 μM): 0
- Plate antimicrobial activity test Pyricularia oryzae, level (Pyricularia oryzae; peptide 100 μM): 0

Reference: US12396461B2, “Functional peptides having antimicrobial activity against phytopathogenic microorganisms” (TOYOTA JIDOSHA KABUSHIKI KAISHA, priority 2019, dated 2025)
